According to US20210023223A1, “HYDROCARBON / LIPID - CAROTENOID COMPLEXES” (IP SCIENCE LIMITED, priority 2018, published 2021):

Tests used:
[1] = Acid induced degradation at pH 2.5, gas chromatography; assay type: physicochemical
Description: Briefly, 100 μl of serum and 2 ml of the stock solution were combined in screw-capped glass tubes. The tubes were capped and heated at 100 C for 60 min. The tubes were allowed to cool down to the room temperature and were extracted twice with 1 ml hexane. The combined hexane solution was evaporated under vacuum (Scan Speed 32 centrifuge) and the residue reconstituted to the volume of 50 μl with of hexane, transferred to GC vials, and capped under nitrogen.
Temperature program, initial: 130 C with a 4 min hold; ramp: 4 C/min to 280 C with a 2 min hold. Carrier gas was He, with a linear velocity of 30 cm/s. Fatty acid analysis was performed by injection of 1 μl of each sample at a split ratio of 50:1. The FID and the Injection port temperature was 300 C. The sampling frequency was 40 Hz. Fatty acids identification was performed with SUPELCO 37 COMPONENT FAME MIX (Supelco, USA). DHA concentrations were calculated on the basis of the standard concentrations. Analytical standard of DHA and PTC (Sigma, USA) were used in the assay.

[2] = system: individuals with a moderate hyperlipidemia; experiment: Clinical Trial DHA-Lycopene, 4 weeks; assay type: in vivo, human; conditions: for LDL / Triglycerides: medians, DHA 250 mg and/or lycopene 7 mg once a day
Description: To validate this, a clinical trial was undertaken. 32 individuals aged 40-65 years old with a moderate hyperlipidemia (serum triglycerides, TG, >150 mg/dl and LDL from 130 to 160 mg/dl). They were randomised and split in four groups of 8: • The first was supplemented with a 250 mg of conventional formulation of DHA without lycopene (CF-DHA), • the second with 7 mg of lycopene, • the third with 250 mg of DHA and 7 mg of lycopene co-ingested at the same time but as two separate products, and • the fourth group received 7 mg lycopene formulated with 250 mg of DHA (LF-DHA). All products were taken once a day with the main meal. The duration of the trial was for 4 weeks.

Melting time at 37° C. = assay type: physicochemical; conditions: 1 mg per 1 g of the chocolate; control 19 minutes
Description: Approximately 20 mg of butter, or pork fat, or beef fat, or cocoa butter, or chocolate, with or without certain concentrations of carotenoids, were placed on the surface of the laboratory slides and incubated at 37° C. in a laboratory incubator (TLK39).
Results presented in FIG. 15 show three different carotenoids—lycopene, lutein and astaxanthin, can reduce, albeit to a different degree, the melting time of dark chocolate regardless of its tempering protocols: Protocol I—28° C., Protocol II—29° C., Protocol III—30° C.

[3] = DHA preparation with lycopene 1 mg per 1 g of DHA
[4] = DHA preparation without lycopene

| Compound | GC peak Area, %, After 2 hours at pH 2.5 [1, 3] [%] | GC peak Area, %, Baseline [1, 3] [%] | GC peak Area, After 2 hours at pH 2.5 [1, 3] | GC peak Area, Baseline [1, 3] | GC peak Area, %, After 2 hours at pH 2.5 [1, 4] [%] | GC peak Area, %, Baseline [1, 4] [%] | GC peak Area, After 2 hours at pH 2.5 [1, 4] | GC peak Area, Baseline [1, 4] | Melting time of dark chocolate (Melting time at 37° C.) [min] | LDL ([2]; 0 w) [mg/dL] | Triglycerides ([2]; 0 w) [mg/dL] | LDL ([2]; 4 w) [mg/dL] | Triglycerides ([2]; 4 w) [mg/dL] | Reduction of medians of serum TG concentration ([2]; 4 weeks) [mg/dL] | Reduction in LDL ([2]; 4 weeks, p<0.05) [mg/dL] |
| --- | --- | --- | --- | --- | --- | --- | --- | --- | --- | --- | --- | --- | --- | --- | --- |
| CCCCC/C=C\C/C=C\CCCCCCCC(=O)O [Linoleic] | 0.98 | 1.28 | 10,395 | 12,328 | 1.25 | 0.89 | 8396 | 9,494 | – | – | – | – | – | – | – |
| CCCCCCCCCCCCCCCC(=O)O [Palmitic] | 17.52 | 17.82 | 186,438 | 171,664 | 17.66 | 18.45 | 118,649 | 197,526 | – | – | – | – | – | – | – |
| CC/C=C\C/C=C\C/C=C\C/C=C\C/C=C\C/C=C\CCC(=O)O [DHA, Doxosahexaenoic Acid] | – | – | – | – | – | – | – | – | – | 155.5 | 191.5 | 153.5 | 185.5 | 27.5 | 19.5 |
| CCCC/C=C\CCCCCCCC(=O)O [Myristoleic] | 0.17 | 0.17 | 1,789 | 1,662 | 0.18 | 0.18 | 1,197 | 1,934 | – | – | – | – | – | – | – |
| CCCCCCCCCCCCCCCCCC(=O)O [Stearic] | 0.64 | 0.69 | 6,811 | 6,673 | 0.68 | 0.66 | 4597 | 7,051 | – | – | – | – | – | – | – |
| CCCCCC(=O)O [Caproic] | – | – | – | – | – | 1.31 | – | 13,975 | – | – | – | – | – | – | – |
| CCCCCCCCCCCCCCCCCCCC(=O)O [Arachidic] | – | – | – | – | – | 0.10 | – | 1,032 | – | – | – | – | – | – | – |
| CCCCCCCCCCCC(=O)O [Lauric] | 0.15 | 0.14 | 1,605 | 1,354 | – | 0.16 | – | 1,718 | – | – | – | – | – | – | – |
| CCCCCCCCCCCCCC(=O)O [Myristic] | 6.56 | 6.42 | 69,816 | 61,814 | 6.42 | 6.23 | 43,118 | 73,096 | – | – | – | – | – | – | – |
| CCCCCC/C=C\CCCCCCCC(=O)O [Palmitoleic] | 0.16 | 0.17 | 1,710 | 1,598 | 0.19 | 0.11 | 1,278 | 1,219 | – | – | – | – | – | – | – |
| CCCCCCCCCCCCCCCCCCCCCCCC(=O)O [Lignoceric] | 0.17 | 0.17 | 1,775 | 1,613 | 0.17 | 0.14 | 1162 | 1,518 | – | – | – | – | – | – | – |
| CCC=CCC=CCC=CCC=CCC=CC/C=C\CCC(=O)O [cis-4,7,10,13,16,19-Docosahexaenoic] | 43.60 | 42.55 | 464,051 | 409,974 | 43.54 | 42.63 | 292,485 | 456,572 | – | – | – | – | – | – | – |
| CCCCC/C=C\C/C=C\C/C=C\C/C=C\CCCC(=O)O [Arachidonic] | 0.81 | 0.82 | 8,565 | 7,859 | 0.79 | 0.83 | 5323 | 8,907 | – | – | – | – | – | – | – |
| CCCCC/C=C\C/C=C\C/C=C\CCCCC(=O)O [gamma-Linolenic] | 0.26 | 0.27 | 2,767 | 2,627 | 0.28 | 0.28 | 1,851 | 3,030 | – | – | – | – | – | – | – |

Further lines, with some results ahead:

| GC peak Area, %, After 2 hours at pH 2.5 [1, 3] [%] | GC peak Area, %, Baseline [1, 3] [%] | GC peak Area, After 2 hours at pH 2.5 [1, 3] | GC peak Area, Baseline [1, 3] | GC peak Area, %, After 2 hours at pH 2.5 [1, 4] [%] | GC peak Area, %, Baseline [1, 4] [%] | GC peak Area, After 2 hours at pH 2.5 [1, 4] | GC peak Area, Baseline [1, 4] | Melting time of dark chocolate (Melting time at 37° C.) [min] | Compound | LDL ([2]; 0 w) [mg/dL] | Triglycerides ([2]; 0 w) [mg/dL] | LDL ([2]; 4 w) [mg/dL] | Triglycerides ([2]; 4 w) [mg/dL] | Reduction of medians of serum TG concentration ([2]; 4 weeks) [mg/dL] | Reduction in LDL ([2]; 4 weeks, p<0.05) [mg/dL] |
| --- | --- | --- | --- | --- | --- | --- | --- | --- | --- | --- | --- | --- | --- | --- | --- |
| 0.55 | 0.46 | 5,889 | 4,391 | 0.42 | 0.47 | 2800 | 5,002 | – | cis-8,11,14,17-eicosapentaenoic | – | – | – | – | – | – |
| 6.42 | 6.63 | 68,330 | 63,846 | 6.72 | 6.53 | 45112 | 69,917 | – | Linole/alpha-linilenic | – | – | – | – | – | – |
| 1.01 | 1.03 | 10,759 | 9,937 | 0.99 | 1.07 | 6679 | 11,447 | – | CCC=CCC=CCC=CCC=CC/C=C\CCCC(=O)O [cis-5,8,11,14,17-eicosapentaenoic] | – | – | – | – | – | – |
| – | – | – | – | – | 0.10 | – | 1,096 | – | CCCCCCCCCCCCCCCCCCCCCC(=O)O [Behenic] | – | – | – | – | – | – |
| 0.27 | 0.26 | 2,843 | 2,511 | 0.26 | 0.29 | 1,716 | 3,120 | – | CCCCCCCCCCCCCCC(=O)O [Pentadecanoic] | – | – | – | – | – | – |
| – | – | – | – | – | – | – | – | 6 | CC1=C[C@H](O)CC(C)(C)[C@H]1/C=C/C(C)=C/C=C/C(C)=C/C=C/C=C(C)/C=C/C=C(C)/C=C/C1=C(C)C[C@@H](O)CC1(C)C [Lutein, lutein] | – | – | – | – | – | – |
| 0.21 | 0.26 | 2,205 | 2,537 | 0.24 | 0.20 | 1629 | 2,108 | – | CCCCCCCC/C=C/CCCCCCCC(=O)O [Elaidic] | – | – | – | – | – | – |
